Five compounds from patent publication US20260176320A1, “MODULATORS OF G-PROTEIN COUPLED RECEPTORS” (priority 2018, published 2026) can be followed below.

Common to all, as to format: cell-based
Assay [1] deals with T1, GIP-R (Homo sapiens, UniProt P48546).
T1 sequence (P48546 22-466): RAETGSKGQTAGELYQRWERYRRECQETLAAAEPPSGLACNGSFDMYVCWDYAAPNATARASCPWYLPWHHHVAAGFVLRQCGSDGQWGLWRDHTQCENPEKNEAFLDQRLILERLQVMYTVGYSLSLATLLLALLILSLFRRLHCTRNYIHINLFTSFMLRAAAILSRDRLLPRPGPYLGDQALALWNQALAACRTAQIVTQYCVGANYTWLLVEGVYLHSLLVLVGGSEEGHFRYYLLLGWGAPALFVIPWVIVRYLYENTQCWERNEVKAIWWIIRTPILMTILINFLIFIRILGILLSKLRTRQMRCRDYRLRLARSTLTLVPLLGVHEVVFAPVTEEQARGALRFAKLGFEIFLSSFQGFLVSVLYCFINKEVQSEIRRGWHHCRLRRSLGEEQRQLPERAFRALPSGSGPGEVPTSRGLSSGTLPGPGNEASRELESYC
The assay can be described thus: HitHunter cAMP assay (GIP-R). To be noted: cAMP; for Emax at 1 µM: read-out: (Emax) GIP-R at 1 μM, Table 3; for Emax: read-out: (Emax) GIP-R. In a few lines: (§1)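 Suspension cells expressing each receptor (10,000 per well) in HBSS with 10 mM HEPES, 625 μM IBMX and 0.2% BSA were treated with a 22-point 2-fold agonist series in duplicate for 30 minutes at room temperature. cAMP was detected by antibody immunocompetition with luminescence read after overnight incubation.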
On the technique in general: Cyclic AMP is a second messenger, typically raised through Gs and lowered through Gi signalling.

Assay [2] concerns the target T2, GLP-1R (Homo sapiens, UniProt P43220). The assay can be described thus: PathHunter β-arrestin assay. In a few lines: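 Cells seeded overnight, then medium replaced with medium containing 0.2% BSA; agonists added as 22-point 2-fold DMSO dilution series in duplicate and incubated 90 min at 37 °C, 5% CO2. After addition of detection solution, plates sat 3 h at room temperature in the dark; luminescence read.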

Assay [3] addresses T2, GLP-1R. The assay can be described thus: HitHunter cAMP assay (GLP-1R). To be noted: cAMP; for Emax: read-out: (Emax) GLP-1R. In a few lines:
as §1

Setting [4] is: Table 3, read-out: EC50 GIP-R/nM.
Setting [5] is: Table 3A, read-out: EC50 GIP-R/nM.
The mark [6] stands for this setting: PathHunter β-arrestin assay, read-out: β-arrestin activity EC50.
Setting [7] is: Table 3, read-out: EC50 GLP-1R/nM.
Setting [8] is: Table 3A, read-out: EC50 GLP-1R/nM.

Where two headings read alike, the source gives them in different places. Some results are limits rather than exact numbers.

T2 sequence (P43220 24-463): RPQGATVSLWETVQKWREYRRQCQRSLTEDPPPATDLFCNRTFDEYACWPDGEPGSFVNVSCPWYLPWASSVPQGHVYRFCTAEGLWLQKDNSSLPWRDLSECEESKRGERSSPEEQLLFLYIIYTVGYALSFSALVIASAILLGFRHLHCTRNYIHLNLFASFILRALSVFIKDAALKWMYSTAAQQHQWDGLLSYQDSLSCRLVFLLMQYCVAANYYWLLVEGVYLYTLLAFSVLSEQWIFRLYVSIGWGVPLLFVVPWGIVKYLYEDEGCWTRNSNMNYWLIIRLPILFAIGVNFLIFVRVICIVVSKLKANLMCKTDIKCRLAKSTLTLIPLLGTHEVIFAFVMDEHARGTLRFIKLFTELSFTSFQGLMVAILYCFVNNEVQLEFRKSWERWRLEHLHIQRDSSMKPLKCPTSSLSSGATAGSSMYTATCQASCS

As for `CC[C@H](C)[C@H](NC(=O)[C@H](CO)NC(=O)[C@H](Cc1ccc(O)cc1)NC(=O)[C@H](CC(=O)O)NC(=O)[C@H](CO)NC(=O)[C@@H](NC(=O)[C@H](Cc1ccccc1)NC(=O)[C@@H](NC(=O)CNC(=O)[C@H](CCC(=O)O)NC(=O)C[S+]([O-])CC(=O)NCCN1C(=O)CSC1=O)[C@@H](C)O)[C@@H](C)O)C(=O)N[C@@H](Cc1ccc(O)cc1)C(=O)N[C@@H](CC(C)C)C(=O)N[C@@H](CC(=O)O)C(=O)N[C@@H](CCCCN)C(=O)N[C@@H](CCC(N)=O)C(=O)N[C@@H](C)C(=O)N[C@@H](C)C(=O)NC(C)(C)C(=O)N[C@@H](CCC(=O)O)C(=O)N[C@@H](Cc1ccccc1)C(=O)N[C@H](C(=O)N[C@@H](CC(N)=O)C(=O)N[C@@H](Cc1c[nH]c2ccccc12)C(=O)N[C@@H](CC(C)C)C(=O)N[C@@H](CC(C)C)C(=O)N[C@@H](C)C(=O)NCC(=O)NCC(=O)N1CCC[C@H]1C(=O)N[C@@H](CO)C(=O)N[C@@H](CO)C(=O)NCC(=O)N[C@@H](C)C(=O)N1CCC[C@H]1C(=O)N1CCC[C@H]1C(=O)N1CCC[C@H]1C(=O)N[C@@H](CO)C(=O)N[C@@H](CCCCN)C(N)=O)C(C)C` (stereo partly drawn) [Compound 170], the EC50 in assay [1] (setting [4]) was greater than 1000 nM; in assay [1] (setting [5]), greater than 1000 nM; in assay [2] (setting [6]), greater than 1000 nM; in assay [3] (setting [7]), 1 to 10 nM; in assay [3] (setting [8]) it was 1 to 10 nM. Further, in assay [1], the maximal effect (Emax) at 1 µM lay within 5 to 8%. For the same compound, the Emax in assay [3] (Table 3) and in assay [3] (Table 3A) was 99% in each case.
For the compound `CC[C@H](C)[C@H](NC(=O)[C@H](CO)NC(=O)[C@H](Cc1ccc(O)cc1)NC(=O)[C@H](CC(=O)O)NC(=O)[C@H](CO)NC(=O)[C@@H](NC(=O)[C@H](Cc1ccccc1)NC(=O)[C@@H](NC(=O)CNC(=O)[C@H](CCC(=O)O)NC(=O)CNC(=O)CCCCN1C(=O)CSC1=O)[C@@H](C)O)[C@@H](C)O)C(=O)N[C@@H](Cc1ccc(O)cc1)C(=O)N[C@@H](CC(C)C)C(=O)N[C@@H](CC(=O)O)C(=O)N[C@@H](CCCCN)C(=O)N[C@@H](CCC(N)=O)C(=O)N[C@@H](C)C(=O)N[C@@H](C)C(=O)NC(C)(C)C(=O)N[C@@H](CCC(=O)O)C(=O)N[C@@H](Cc1ccccc1)C(=O)N[C@H](C(=O)N[C@@H](CC(N)=O)C(=O)N[C@@H](Cc1c[nH]c2ccccc12)C(=O)N[C@@H](CC(C)C)C(=O)N[C@@H](CC(C)C)C(=O)N[C@@H](C)C(=O)NCC(=O)NCC(=O)N1CCC[C@H]1C(=O)N[C@@H](CO)C(=O)N[C@@H](CO)C(=O)NCC(=O)N[C@@H](C)C(=O)N1CCC[C@H]1C(=O)N1CCC[C@H]1C(=O)N1CCC[C@H]1C(=O)N[C@@H](CO)C(=O)N[C@@H](CCCCN)C(N)=O)C(C)C` [Compound 171], the EC50 in assay [1] (setting [4]) was greater than 1000 nM; in assay [1] (setting [5]), greater than 1000 nM; in assay [2] (setting [6]) it was greater than 1000 nM; in assay [3] (setting [7]) it was 1 to 10 nM; in assay [3] (setting [8]), 1 to 10 nM. In addition, the Emax at 1 µM in assay [1] came to 6.5%. The maximal effect (Emax) in assay [3] (Table 3) and in assay [3] (Table 3A) was 93 to 98% in each case.
On to `CC[C@H](C)[C@H](NC(=O)[C@H](CO)NC(=O)[C@H](Cc1ccc(O)cc1)NC(=O)[C@H](CC(=O)O)NC(=O)[C@H](CO)NC(=O)[C@@H](NC(=O)[C@H](Cc1ccccc1)NC(=O)[C@@H](NC(=O)CNC(=O)[C@H](CCC(=O)O)NC(=O)CCNC(=O)CCCN1C(=O)CSC1=O)[C@@H](C)O)[C@@H](C)O)C(=O)N[C@@H](Cc1ccc(O)cc1)C(=O)N[C@@H](CC(C)C)C(=O)N[C@@H](CC(=O)O)C(=O)N[C@@H](CCCCN)C(=O)N[C@@H](CCC(N)=O)C(=O)N[C@@H](C)C(=O)N[C@@H](C)C(=O)NC(C)(C)C(=O)N[C@@H](CCC(=O)O)C(=O)N[C@@H](Cc1ccccc1)C(=O)N[C@H](C(=O)N[C@@H](CC(N)=O)C(=O)N[C@@H](Cc1c[nH]c2ccccc12)C(=O)N[C@@H](CC(C)C)C(=O)N[C@@H](CC(C)C)C(=O)N[C@@H](C)C(=O)NCC(=O)NCC(=O)N1CCC[C@H]1C(=O)N[C@@H](CO)C(=O)N[C@@H](CO)C(=O)NCC(=O)N[C@@H](C)C(=O)N1CCC[C@H]1C(=O)N1CCC[C@H]1C(=O)N1CCC[C@H]1C(=O)N[C@@H](CO)C(=O)N[C@@H](CCCCN)C(N)=O)C(C)C` [Compound 172], for which the EC50 is 10 to 100 nM in assay [1] (EC50 GIP-R/nM, Table 3); 10 to 100 nM in assay [1] (EC50 GIP-R/nM, Table 3A); greater than 1000 nM in assay [2]; 1 to 10 nM in assay [3] (EC50 GLP-1R/nM, Table 3); 1 to 10 nM in assay [3] (EC50 GLP-1R/nM, Table 3A). Further, the Emax in assay [1] (Table 3) was 63 to 71%; in assay [1] (Table 3A), 63 to 71%; in assay [3] (Table 3), 98 to 101%; in assay [3] (Table 3A), 98 to 101%.
Turning to `CCCCCCCCCCCCCCCC(=O)N[C@@H](CCC(=O)NCCCC[C@H](NC(=O)[C@H](CO)NC(=O)[C@@H]1CCCN1C(=O)[C@@H]1CCCN1C(=O)[C@@H]1CCCN1C(=O)[C@H](C)NC(=O)CNC(=O)[C@H](CO)NC(=O)[C@H](CO)NC(=O)[C@@H]1CCCN1C(=O)CNC(=O)CNC(=O)[C@H](C)NC(=O)[C@H](CC(C)C)NC(=O)[C@H](CC(C)C)NC(=O)[C@H](Cc1c[nH]c2ccccc12)NC(=O)[C@H](CC(N)=O)NC(=O)[C@@H](NC(=O)[C@H](Cc1ccccc1)NC(=O)[C@H](CCC(=O)O)NC(=O)C(C)(C)NC(=O)[C@H](C)NC(=O)[C@H](C)NC(=O)[C@H](CCC(N)=O)NC(=O)[C@H](CCCCN)NC(=O)[C@H](CC(=O)O)NC(=O)[C@H](CC(C)C)NC(=O)[C@H](Cc1ccc(O)cc1)NC(=O)[C@@H](NC(=O)[C@H](CO)NC(=O)[C@H](Cc1ccc(O)cc1)NC(=O)[C@H](CC(=O)O)NC(=O)[C@H](CO)NC(=O)[C@@H](NC(=O)[C@H](Cc1ccccc1)NC(=O)[C@@H](NC(=O)CNC(=O)[C@H](CCC(=O)O)NC(=O)CSCC(=O)NCCN1C(=O)c2ccccc2C1=O)[C@@H](C)O)[C@@H](C)O)[C@@H](C)CC)C(C)C)C(N)=O)C(=O)O` [Compound 173], the EC50 in assay [1] (EC50 GIP-R/nM, Table 3) was 0.1 to 1 nM; in assay [1] (EC50 GIP-R/nM, Table 3A), 0.1 to 1 nM; in assay [2] it was greater than 1000 nM; in assay [3] (EC50 GLP-1R/nM, Table 3) it was 1 to 10 nM; in assay [3] (EC50 GLP-1R/nM, Table 3A), 1 to 10 nM. For the same compound, the maximal effect (Emax) in assay [1] (Table 3) lay in the range of 92 to 111%; in assay [1] (Table 3A) it was 92 to 111%; in assay [3] (Table 3), 90 to 105%; in assay [3] (Table 3A), 90 to 105%.
Take `CC[C@H](C)[C@H](NC(=O)[C@H](CO)NC(=O)[C@H](Cc1ccc(O)cc1)NC(=O)[C@H](CC(=O)O)NC(=O)[C@H](CO)NC(=O)[C@@H](NC(=O)[C@H](Cc1ccccc1)NC(=O)[C@@H](NC(=O)CNC(=O)[C@H](CCC(=O)O)NC(=O)CCCCCCN1C(=O)CSC1=O)[C@@H](C)O)[C@@H](C)O)C(=O)N[C@@H](Cc1ccc(O)cc1)C(=O)N[C@@H](CC(C)C)C(=O)N[C@@H](CC(=O)O)C(=O)N[C@@H](CCCCN)C(=O)N[C@@H](CCC(N)=O)C(=O)N[C@@H](C)C(=O)N[C@@H](C)C(=O)NC(C)(C)C(=O)N[C@@H](CCC(=O)O)C(=O)N[C@@H](Cc1ccccc1)C(=O)N[C@H](C(=O)N[C@@H](CC(N)=O)C(=O)N[C@@H](Cc1c[nH]c2ccccc12)C(=O)N[C@@H](CC(C)C)C(=O)N[C@@H](CC(C)C)C(=O)N[C@@H](C)C(=O)NCC(=O)NCC(=O)N1CCC[C@H]1C(=O)N[C@@H](CO)C(=O)N[C@@H](CO)C(=O)NCC(=O)N[C@@H](C)C(=O)N1CCC[C@H]1C(=O)N1CCC[C@H]1C(=O)N1CCC[C@H]1C(=O)N[C@@H](CO)C(=O)N[C@@H](CCCCN)C(N)=O)C(C)C` [Compound 176]: the EC50 was greater than 1000 nM in assay [1] (EC50 GIP-R/nM, Table 3); greater than 1000 nM in assay [1] (read-out: EC50 GIP-R/nM, Table 3A); greater than 1000 nM in assay [2]; 10 to 100 nM in assay [3] (EC50 GLP-1R/nM, Table 3); 10 to 100 nM in assay [3] (EC50 GLP-1R/nM, Table 3A). The Emax at 1 µM in assay [1] came to 1.8%. For the same compound, the Emax in assay [3] (Table 3) and in assay [3] (Table 3A) was 92% throughout.

Usually Emax stands for the size of the effect at its maximum, as opposed to the concentration needed.
